This is an account of results in paper PMC8805605, “Discovery of Dimeric Arylsulfonamides as Potent ADAM8 Inhibitors” (ACS Medicinal Chemistry Letters, 2021).

The structures appear in SMILES notation.

A word on the IC50: it is the point on the concentration scale where inhibition reaches its midpoint.

One experiment concerns the target T1, MMP-2 (Homo sapiens, UniProt P08253).
T1 construct: purchased Calbiochem (Merck-Millipore)
T1 sequence (P08253 110-660): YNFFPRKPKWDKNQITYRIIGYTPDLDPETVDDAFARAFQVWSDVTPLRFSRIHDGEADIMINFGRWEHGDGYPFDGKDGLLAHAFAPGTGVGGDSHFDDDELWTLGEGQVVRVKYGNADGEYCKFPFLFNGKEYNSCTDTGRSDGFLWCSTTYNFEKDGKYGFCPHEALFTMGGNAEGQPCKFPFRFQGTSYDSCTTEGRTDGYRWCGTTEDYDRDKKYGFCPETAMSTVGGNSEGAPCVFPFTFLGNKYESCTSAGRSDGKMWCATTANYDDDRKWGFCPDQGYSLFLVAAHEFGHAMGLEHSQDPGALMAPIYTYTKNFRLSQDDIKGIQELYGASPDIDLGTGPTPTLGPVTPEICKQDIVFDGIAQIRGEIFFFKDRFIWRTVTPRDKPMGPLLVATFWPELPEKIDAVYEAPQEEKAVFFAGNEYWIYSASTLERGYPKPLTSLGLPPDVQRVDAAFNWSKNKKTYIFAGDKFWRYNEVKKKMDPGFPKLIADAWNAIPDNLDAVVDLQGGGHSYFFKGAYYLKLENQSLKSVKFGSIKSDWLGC
Description: MMP-2 fluorometric inhibition assay. The format is biochemical. As to conditions: mean of three independent experiments in duplicate, read-out: In vitro inhibitory activity IC50 on MMP-2. On the procedure:
(§1) The newly synthesized bivalent derivatives 1–3 were then tested in vitro on human recombinant ADAM8 in comparison with JG26 by a fluorometric assay. The inhibitory activity against a panel of MMPs and ADAM10/17 was determined as well to assess their selectivity profile. […]
(§2) VI. Biological Activity on Isolated Enzymes
(§3) MMP and ADAM10 inhibition assays.
(§4) Recombinant human MMP-14 catalytic domain was a kind gift of Prof. Gillian Murphy (Department of […]
(§5) Oncology, University of Cambridge, UK). Pro-MMP-1, pro-MMP-2, and pro-MMP-9, were purchased […]
(§6) from Calbiochem (Merck-Millipore). Pro-MMP-12 and ADAM10 were purchased from R&D Systems.
(§7) Proenzymes were activated immediately prior to use with p-aminophenylmercuric acetate (APMA 2 […]
(§8) mM for 1 h at 37°C for MMP-2 and MMP-1, 1 mM for 1 h at 37°C for MMP-9). Pro-MMP-12 was […]
(§9) auto activated by incubating in the fluorometric assay buffer (FAB: Tris 50 mM, pH = 7.5, NaCl 150 […]
(§10) mM, CaCl2 10 mM, Brij 35 0.05% and DMSO 1%) for 30 h at 37°C. For assay measurements, each […]
(§11) inhibitor stock solution (DMSO, 10 mM) was further diluted in FAB at seven different concentrations.
(§12) Activated enzyme (final concentration 0.56 nM for MMP-2, 1.3 nM for MMP-9, 1.0 nM for MMP- […]
(§13) 14cd, 2.0 nM for MMP-1, 2.3 nM for MMP-12 and 20 nM for ADAM10) and inhibitor solutions were […]
(§14) incubated in the assay buffer for 3 h at 25 °C. ADAM10 was incubated for 1 h at 37°C in a different […]
buffer at pH 9 (Tris 25 mM, ZnCl2 25 µM, Brij-35 0.005 %). After the addition of 200 µM solution of […]
the fluorogenic substrate Mca-Lys-Pro-Leu-Gly-Leu-Dap(Dnp)-Ala-Arg-NH2 (Bachem) for all the […]
enzymes in DMSO (final concentration 2 µM for all enzymes, 10 µM for ADAM10), the hydrolysis […]
(§15) was monitored every 10 sec. for 15 min. recording the increase in fluorescence (λ ex = 325 nm, λ em = […]
400 nm) using a Molecular Devices SpectraMax Gemini XPS plate reader. The assays were performed […]
in triplicate in a total volume of 200 μL per well in 96-well microtitre plates (Corning, black, NBS).
Control wells lack inhibitor. The MMP inhibition activity was expressed in relative fluorescent units […]
(RFU). Percent of inhibition was calculated from control reactions without the inhibitor. IC50 was determined using the formula: v i/v o = 1/(1 + [I]/ IC50), where v i is the initial velocity of substrate cleavage in the presence of the inhibitor at concentration [I] and v o is the initial velocity in the absence of the inhibitor. Results were analyzed using SoftMax Pro software (version 5.4.3, Molecular Devices, Sunnyvale, CA) and Prism Software version 5.0 (GraphPad Software, Inc., La Jolla, CA, USA).
ADAM8 and ADAM17 inhibition assays […]

The target in a further experiment is T2, MMP-12 (Homo sapiens, UniProt P39900).
T2 construct: purchased R&D Systems
T2 sequence (P39900 106-470): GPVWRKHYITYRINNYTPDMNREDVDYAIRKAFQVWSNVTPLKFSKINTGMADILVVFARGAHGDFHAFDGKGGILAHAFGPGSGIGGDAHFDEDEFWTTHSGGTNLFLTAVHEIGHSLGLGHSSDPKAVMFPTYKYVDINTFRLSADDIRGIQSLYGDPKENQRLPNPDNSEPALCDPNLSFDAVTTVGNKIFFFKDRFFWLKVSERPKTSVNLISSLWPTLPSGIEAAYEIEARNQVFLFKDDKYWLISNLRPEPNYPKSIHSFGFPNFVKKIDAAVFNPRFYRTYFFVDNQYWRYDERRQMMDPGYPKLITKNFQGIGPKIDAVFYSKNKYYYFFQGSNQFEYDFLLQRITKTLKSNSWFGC
Description: MMP-12 fluorometric inhibition assay. The note with it: mean of three independent experiments in duplicate, read-out: In vitro inhibitory activity IC50 on MMP-12. It counts as biochemical. Here is the method: as §1, §2, §3, §4, §5, §6, §7, §8, §9, §10, §11, §12, §13, §14, §15
400 nm) using a Molecular Devices SpectraMax Gemini XPS plate reader. […]
(RFU). Percent of inhibition was calculated from control reactions without the inhibitor. IC50 was determined using the formula: v i/v o = 1/(1 + [I]/ IC50), where v i is the initial velocity of substrate cleavage in the presence of the inhibitor at concentration [I] and v o is the initial velocity in the absence of the inhibitor. Results were analyzed using SoftMax Pro software (version 5.4.3, Molecular Devices, Sunnyvale, CA) and Prism Software version 5.0 (GraphPad Software, Inc., La Jolla, CA, USA). […]

For the compound `O=C(CCCNC(=O)c1cccc(C(=O)NCCCC(=O)NCCC[C@@H](NS(=O)(=O)c2ccc(OCc3cc(Br)cc(Br)c3)cc2)C(=O)NO)c1)NCCC[C@@H](NS(=O)(=O)c1ccc(OCc2cc(Br)cc(Br)c2)cc1)C(=O)NO` [Compound 1], the IC50 at MMP-2 amounted to 4660 nM; at MMP-12 it was 242 nM.
In the case of `O=C(NCCC[C@@H](NS(=O)(=O)c1ccc(OCc2cc(Br)cc(Br)c2)cc1)C(=O)NO)c1cccc(C(=O)NCCC[C@@H](NS(=O)(=O)c2ccc(OCc3cc(Br)cc(Br)c3)cc2)C(=O)NO)c1` [Compound 2], the results for the IC50 at MMP-2 and on MMP-12 were 3000 nM and 41 nM, respectively.
In the case of `O=C(NCCC[C@@H](NS(=O)(=O)c1ccc(OCc2cc(Br)cc(Br)c2)cc1)C(=O)NO)NCCC[C@@H](NS(=O)(=O)c1ccc(OCc2cc(Br)cc(Br)c2)cc1)C(=O)NO` [Compound 3], the IC50 at MMP-2 was found to be 900 nM.
As to `NC(=O)NCCC[C@@H](NS(=O)(=O)c1ccc(OCc2cc(Br)cc(Br)c2)cc1)C(=O)NO` [JG26, reference compound], the IC50 at MMP-2 was found to be 240 nM; at MMP-12, 9.4 nM.
